Data set [1] in a line: refractive index (Na D-line) (dimensionless). The conditions noted are these: 293.15 K; 101.33 kPa; Liquid; Standard Abbe refractometry.
For data set [2] the following is noted: 293.15 K; 101.33 kPa; Liquid; Vibrating tube method.

Numbers after ± are expanded uncertainties.

This is an account of results in the NIST ThermoML archive (doi:10.1021/je301122r).

As usually defined, the refractive index is a measure of how strongly the sample bends light. One may read the mass density as mass per unit of volume.

For `Cc1ccc(C)c(C)c1` [1,2,4-trimethylbenzene], the refractive index in data set [1] was found to be 1.5047 ± 0.0007. In data set [2], the mass density is reported as 875.78 ± 0.13 kg/m3.
The like results for `CCc1ccccc1C` [1-ethyl-2-methylbenzene] were, in that order, 1.5045 ± 0.0007 and 880.66 ± 0.13 kg/m3.
